This note sets out measurements from patent US11254663B2 (BRISTOL-MYERS SQUIBB COMPANY, priority 2019, dated 2022).

Molecules are shown by their SMILES.

FXR, sequence (Q96RI1 262-486): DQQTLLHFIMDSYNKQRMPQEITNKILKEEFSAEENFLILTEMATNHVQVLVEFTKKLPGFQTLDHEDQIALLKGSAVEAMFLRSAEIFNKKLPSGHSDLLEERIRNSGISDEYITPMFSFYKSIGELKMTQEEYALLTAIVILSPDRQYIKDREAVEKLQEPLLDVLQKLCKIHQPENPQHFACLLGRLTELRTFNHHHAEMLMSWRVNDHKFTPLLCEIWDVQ

This experiment concerns the target FXR (Homo sapiens (Human), UniProt Q96RI1). In words: FXR EC50 (FXR agonist potency reported with each Example). Type of experiment: cell-based.
What is called EC50 is the concentration needed to bring the measured effect to its halfway point. As for `CC1(C(=O)N(CC23CCC(c4nc(C(C)(C)C)no4)(CC2)CC3)c2cccc(-c3nc(C4CC4)no3)c2)COC1` [Example 191, N-((4-(3-(tert-butyl)-1,2,4-oxadiazol-5-yl)bicyclo[2.2.2]octan-1-yl)methyl)-N-(3-(3-cyclopropyl-1,2,4-oxadiazol-5-yl)phenyl)-3-methyloxetane-3-carboxamide], the EC50 was determined as 824 nM.

`CC1(c2nc(-c3cccc(N(CC45CCC(c6nc(C7CC7)no6)(CC4)CC5)C(=O)C45CC(F)(C4)C5)c3)no2)CC1` [Example 106, N-((4-(3-cyclopropyl-1,2,4-oxadiazol-5-yl)bicyclo[2.2.2]octan-1-yl)methyl)-3-fluoro-N-(3-(5-(1-methylcyclopropyl)-1,2,4-oxadiazol-3-yl)phenyl)bicyclo[1.1.1]pentane-1-carboxamide] had an EC50 of 58 nM.

As for `CC(C)(C)c1nc(-c2cccc(N(CC34CCC(c5nc(C6CC6)no5)(CC3)CC4)C(=O)C34CC(F)(C3)C4)c2)no1` [Example 107, N-(3-(5-(tert-butyl)-1,2,4-oxadiazol-3-yl)phenyl)-N-((4-(3-cyclopropyl-1,2,4-oxadiazol-5-yl)bicyclo[2.2.2]octan-1-yl)methyl)-3-fluorobicyclo[1.1.1]pentane-1-carboxamide], the EC50 worked out at 18 nM.

`CCCc1ncc(-c2cccc(N(CC34CCC(c5nc(C6CC6)no5)(CC3)CC4)C(=O)C34CC(F)(C3)C4)c2)o1` [Example 26, N-((4-(3-cyclopropyl-1,2,4-oxadiazol-5-yl)bicyclo[2.2.2]octan-1-yl)methyl)-3-fluoro-N-(3-(2-propyloxazol-5-yl)phenyl)bicyclo[1.1.1]pentane-1-carboxamide] showed a concentration for a half-maximal effect (EC50) of 72 nM.

`Cn1nc(C2CC2)cc1C12CCC(CN(C(=O)C3CC(F)(F)C3)c3cccc(-c4nc(C5CC5)no4)c3)(CC1)CC2` [Example 127, N-(3-(3-cyclopropyl-1,2,4-oxadiazol-5-yl)phenyl)-N-((4-(3-cyclopropyl-1-methyl-1H-pyrazol-5-yl)bicyclo[2.2.2]octan-1-yl)methyl)-3,3-difluorocyclobutane-1-carboxamide] registered an EC50 of 374 nM. Compared with the last compound, the EC50 is about 5.2-fold higher.

For the compound `CCOc1nnc(-c2cccc(N(CC34CCC(c5nc(C6CC6)no5)(CC3)CC4)C(=O)C3CCC3)c2)o1` [Example 54, N-((4-(3-cyclopropyl-1,2,4-oxadiazol-5-yl)bicyclo[2.2.2]octan-1-yl)methyl)-N-(3-(5-ethoxy-1,3,4-oxadiazol-2-yl)phenyl)cyclobutanecarboxamide], the EC50 worked out at 215 nM.

`O=C(C1CCC(F)(F)C1)N(CC12CCC(c3nc(CC4CC4)no3)(CC1)CC2)c1cccc(-c2nc(C3CC3)no2)c1` (stereo not drawn) [Example 69, N-(3-(3-cyclopropyl-1,2,4-oxadiazol-5-yl)phenyl)-N-((4-(3-(cyclopropylmethyl)-1,2,4-oxadiazol-5-yl)bicyclo[2.2.2]octan-1-yl)methyl)-3,3-difluorocyclopentane-1-carboxamide] gave an EC50 of 474 nM.

Compound `O=C(C1CC(F)(F)C1)N(CC12CCC(c3nc(C4CC4)no3)(CC1)CC2)c1cccc(-c2nnc(C3CC3)o2)c1` [Example 87, N-((4-(3-cyclopropyl-1,2,4-oxadiazol-5-yl)bicyclo[2.2.2]octan-1-yl)methyl)-N-(3-(5-cyclopropyl-1,3,4-oxadiazol-2-yl)phenyl)-3,3-difluorocyclobutane-1-carboxamide] came in with an EC50 of 712 nM. Against the preceding compound, the EC50 is about 1.5-fold higher.

In turn, `Cc1csc(-c2cccc(N(CC34CCC(c5nc(C6CC6)no5)(CC3)CC4)C(=O)C34CC(F)(C3)C4)c2)n1` [Example 151, N-((4-(3-cyclopropyl-1,2,4-oxadiazol-5-yl)bicyclo[2.2.2]octan-1-yl)methyl)-3-fluoro-N-(3-(4-methylthiazol-2-yl)phenyl)bicyclo[1.1.1]pentane-1-carboxamide] yielded a 50% effective concentration (EC50) of 79 nM. Against the preceding compound, the EC50 is about 9-fold lower.
